From ChEMBL document CHEMBL5303304, “EUbOPEN Chemogenomics Library - IncuCyte” (2023)
Values joined by “and” are separate entries in the source; they are usually repeats but may differ in a detail not shown here. Equal values may be shown once.

Key:
Format in all cases: toxicity, cell-based
U2OS = assay: Incucyte cell viability with U2OS; settings: human, 10 µM, compound concentration 10 uM
HEK-293T = assay: Incucyte cell viability with HEK293T; settings: human, 10 µM, compound concentration 10 uM
Fibroblast = assay: Incucyte cell viability with human fibroblast; settings: 10 µM, compound concentration 10 uM
Further: unitless GR value; below 1 slowed growth and below 0 cell loss.

| Structure (SMILES) | Growth Rate (U2OS; 6 h, replicate number 1) | Growth Rate (U2OS; 6 h, replicate number 2) | Growth Rate (HEK-293T; 0 h, replicate number 1) | Growth Rate (HEK-293T; 24 h, replicate number 1) | Growth Rate (Fibroblast; 0 h, replicate number 1) | Growth Rate (Fibroblast; 6 h, replicate number 1) | Growth Rate (Fibroblast; 12 h, replicate number 1) | Growth Rate (U2OS; 0 h, replicate number 1) | Growth Rate (U2OS; 0 h, replicate number 2) | Growth Rate (U2OS; 12 h, replicate number 1) | Growth Rate (U2OS; 18 h, replicate number 1) | Growth Rate (U2OS; 18 h, replicate number 2) | Growth Rate (U2OS; 24 h, replicate number 1) | Growth Rate (Fibroblast; 18 h, replicate number 1) | Growth Rate (HEK-293T; 6 h, replicate number 2) | Growth Rate (HEK-293T; 18 h, replicate number 2) | Growth Rate (HEK-293T; 24 h, replicate number 2) | Growth Rate (Fibroblast; 24 h, replicate number 2) | further results |
| --- | --- | --- | --- | --- | --- | --- | --- | --- | --- | --- | --- | --- | --- | --- | --- | --- | --- | --- | --- |
| CS(=O)(=O)NCC[C@H](NC(=O)c1cncc2c1cnn2-c1ccc(F)cc1)c1ccnc(S(C)(=O)=O)c1 [BI 9307] | 0.83 | 0.9 | -0.12 | 1 | -0.98 | 0.89 | 0.91 |  |  |  |  |  |  |  |  |  |  |  | Growth Rate (U2OS; 12 h, replicate number 2): 0.91; Growth Rate (HEK-293T; 0 h, replicate number 2): 0.23; Growth Rate (Fibroblast; 0 h, replicate number 2): -0.94 |
| NC(=O)c1ccc(-c2nc(-c3ccc4c(c3)OCO4)c(-c3ccccn3)[nH]2)cc1.O | 0.96 |  | 0.76 |  | -0.21 | -0.01 |  | -0.57 | -0.09 | 0.79 | 0.95 | 0.79 | 0.94 | -0.48 |  |  |  |  | Growth Rate (Fibroblast; 6 h, replicate number 2): -0.54 |
| O=S(=O)(Nc1nncs1)c1cc(Cl)c(Oc2ccc(C(F)(F)F)cc2-c2ccnn2C2CNC2)cc1F |  | 0.95 |  |  |  |  |  | 0.61 | -0.77 |  | 0.95 | 1 | 0.86 | 0.41 |  |  |  |  | Growth Rate (U2OS; 24 h, replicate number 2): 0.98; Growth Rate (HEK-293T; 6 h, replicate number 1): 0.2 |
| COc1ccc(-c2csc(NC(=O)[C@H]3CCCCN3S(=O)(=O)c3ccc(C)cc3)n2)cc1 | 0.92 | 0.97 |  | 0.37 and 0.33 | -1 and -0.88 | 0.02 | 0.31 | 0.22 | -0.9 | 0.99 |  |  | 0.87 and 0.98 |  | 0.07 and 0.12 | 0.3 and 0.38 | 0.41 and 0.4 | 0.7 | Growth Rate (HEK-293T; 12 h, replicate number 2): 0.37; Growth Rate (HEK-293T; 18 h, replicate number 1): 0.35 and 0.26; Growth Rate (Fibroblast; 18 h, replicate number 2): 0.57; Growth Rate (Fibroblast; 24 h, replicate number 1): 0.84 |
| CNC(=O)c1ccc2c(c1)NC(=O)/C2=C(\Nc1ccc(CN2CCCCC2)cc1)c1ccccc1.Cl.O |  |  |  | 1 | -1 |  |  | -1 |  | 0.94 | 0.82 |  | 0.89 |  | 0.72 | 0.71 | 0.54 | 0.78 |  |
